Source: patent publication US20240252410A1, “COMPOUNDS FOR USE IN KERATIN TREATMENT” (CrossChem Limited, priority 2023, published 2024)

Experiments:
[1] = Hair tensile strength test (digital force gauge); conditions: for % Increase in tensile strength relative to control: control 100% DI water
Method: (§1) Hair tensile strength can be measured according to the following general method. “Test Compound” can be any compound described herein. • 1. Collect about 3 hair strands from tress; • 2. Clamp both ends of a single hair strand and pull taut; • 3. Line up ruler with hair strand and cut a 2.75 cm section; • 4. Repeat steps 2-3 until 30 segments are produced; • 5. Create a specific w/w % solution of deionized water and Test Compound (e.g., Compound (1)) in 50 ml beaker; • 6. Saturate the hair for a specific amount of time in the solution, then remove and dry for 30 minutes; • 7. Using a 4 decimal precision balance, weigh all hairs at once and calculate the average; • 8. Insert hair into the digital force gauge; • 9. Separate the two clamps until the hair has broken into two separate pieces; and • 10. Note the maximum force required to break the hair as well as the distance the digital force gauge has moved.
(§2) Control experiments can also be conducted according to the procedure described above, for example by omitting Test Compound from the solution or replacing Test Compound with compound for comparison (e.g., glycolic acid).

[2] = Hair elongation percentage test; conditions: for % Increase in elongation percentage relative to control: control 100% DI water
Method: as §1, §2

[3] = Elongation of bleached hair at break stress (Formulation 1); conditions: 5 w/w % solution in DI water
Method: A combination formulation (Formulation 1) comprising Compound (1) and glycolic acid as an aqueous mixture was tested. Formulation 1 comprises a 1:1 ratio (by weight) of Compound (1) to glycolic acid. To prepare Formulation 1, a mixture containing 50 w/w % Compound (1) and 50 w/w % glycolic acid (crystalline) was prepared (Mixture A). Mixture A was diluted with deionized (DI) water (aqua) until the solution was 5 w/wt % Mixture A.
Formulation 1 was independently analyzed to determine whether elongation of bleached hair at break stress increased compared to both control and glycolic acid solutions. The glycolic acid solution was a 5 w/w % glycolic acid solution in DI water. The control was DI water alone.

[4] = 1 w/w % solution in deionized water
[5] = 2.5 w/w % solution in deionized water

Structure (SMILES)	Tensile strength (Gf/Denier) [1, 4] [gf/denier]	% Increase in tensile strength relative to control ([1]; 1 w/w % solution) [%]	Tensile strength (Gf/Denier) [1, 5] [gf/denier]	Tensile strength of hair compared to glycolic acid (in words) ([1]; 2.5 w/w % solution vs 2.5 w/w % glycolic acid, FIG. 2)	% Increase in tensile strength relative to control ([1]; 2.5 w/w % solution) [%]	Tensile strength of hair relative to control (in words) ([1]; control hair treated 100% DI water, FIG. 1)	Elongation % [2, 4] [%]	% Increase in elongation percentage relative to control ([2]; 1 w/w % solution) [%]	Elongation % [2, 5] [%]	Elongation percentage of hair compared to glycolic acid (in words) ([2]; 2.5 w/w % solution vs 2.5 w/w % glycolic acid, FIG. 4)	% Increase in elongation percentage relative to control ([2]; 2.5 w/w % solution) [%]	Elongation percentage of hair relative to control (in words) ([2]; control hair treated 100% DI water, FIG. 3)	Mean Elongation % [3] [%]	Difference from Control (%) ([3]; control DI water)
N[C@@H](CO)C(=O)OCC(=O)O [Compound (1)]	1.210	16.9	1.490	significantly increases tensile strength of hair as compared to glycolic acid	43.9	significantly increases tensile strength of hair, relative to control	25.4	0.67	29.9	significantly increases elongation percentage of hair	18.51	increases elongation percentage of hair	–	–
O=C(O)CO [Glycolic Acid, glycolic acid, reference compound]	–	–	1.219	–	17.8	–	–	–	26.71	–	5.87	–	55.3	7.38
